Values after ≈ are worked out from the molar mass of the structure shown.
Legend:
Type in all cases: physicochemical
[1] = Solid-state physical stability: form change by XRPD after stress storage; conditions: for Bulk (XRPD): Solid state
Description: (§1) Compound I, Compound I fumaric acid co-crystals and amorphous Compound I fumaric acid samples (10 mg) were placed in an open vial at 50° C./75% RH and 80° C./75% RH chamber for one week. A same amount of sample was placed in a closed vial at 50° C. and 80° C. chamber for 1 week. The samples were exposed to 100 k Lux light for 12 h at 25° C. Solids were examined by XRPD for physical stability determination and by UPLC for chemical stability determination. The color of the samples was evaluated by visual observation. Table 5 compares the stability of Compound I and its various solid forms.

[2] = Solubility in various media at 25° C. after 24 hours equilibration (UPLC); conditions: for final pH of the sample (in parentheses): after 24 hours equilibration
[3] = Dynamic Vapor Sorption (DVS) moisture absorption / hygroscopicity; conditions: for solid form after DVS: after DVS testing; for hygroscopicity: by DVS
[4] = Solid-state chemical stability: degradation products by UPLC/HPLC after stress storage; conditions: for DP % (Degradation Product), Bulk (UPLC): Solid state; for DP % (Degradation Product), Amber vial (HPLC) / DP % (Degradation Product), Clear vial (HPLC): Xenon light (approx. 1200 kLuxh)
Description: as §1

[5] = Crystal form after grinding, compression and wet granulation; conditions: compression and wet granulation (water and ethanol)
[6] = Form after degradation at 160° C.
[7] = Form after storage at 92% RH; conditions: 24 hrs
[8] = 1 week 50° C., closed container
[9] = 1 week 80° C., closed container
[10] = 0.1N HCl pH 1.0, 25° C., 24 hours equilibration
[11] = FaSSIF pH 6.5, 25° C., 24 hours equilibration
[12] = FeSSIF pH 5.8, 25° C., 24 hours equilibration
[13] = SGF pH 2.0, 25° C., 24 hours equilibration
[14] = acetate buffer pH 4.7, 25° C., 24 hours equilibration
[15] = borate buffer pH 10.0, 25° C., 24 hours equilibration
[16] = phosphate buffer pH 6.8, 25° C., 24 hours equilibration
[17] = water, 25° C., 24 hours equilibration
[18] = 50° C., 50° C./75& RH, 80° C. and 80° C./75% RH for one week

Row | Compound | Bulk (XRPD) [1, 8] | Bulk (XRPD) ([1]; 1 week 50° C./75% r.h.) | Bulk (XRPD) [1, 9] | final pH of the sample (in parentheses) ([2]; 0.01N HCl pH 2.0) | solubility [2, 10] | final pH of the sample (in parentheses) ([2]; 0.1N HCl pH 1.0) | solubility [2, 11] | final pH of the sample (in parentheses) ([2]; FaSSIF pH 6.5) | solubility [2, 12] | final pH of the sample (in parentheses) ([2]; FeSSIF pH 5.8) | solubility [2, 13] | final pH of the sample (in parentheses) ([2]; SGF pH 2.0) | solubility [2, 14] | final pH of the sample (in parentheses) ([2]; acetate buffer pH 4.7) | solubility [2, 15] | final pH of the sample (in parentheses) ([2]; borate buffer pH 10.0) | solubility [2, 16] | final pH of the sample (in parentheses) ([2]; phosphate buffer pH 6.8) | solubility [2, 17] | final pH of the sample (in parentheses) ([2]; water) | also measured
1 | Cc1nc(C)c(C(=O)Nc2ccc(F)c(-c3nc4ncc(-c5ncccc5C)cn4n3)c2)o1 [Form B, N-(4-fluoro-3-(6-(3-methylpyridin-2-yl)-[1,2,4]triazolo[1,5-a]pyrimidin-2-yl)phenyl)-2,4-dimethyloxazole-5-carboxamide] | no change | no change | no change | (2.1) | 170 µg/mL (≈ 383 µM) | (1.0) | 7 µg/mL (≈ 15.8 µM) | (5.7) | 16 µg/mL (≈ 36.1 µM) | (5.6) | 63 µg/mL (≈ 142 µM) | (1.9) | 2 µg/mL (≈ 4.51 µM) | (4.6) | 2 µg/mL (≈ 4.51 µM) | (8.1) | 2 µg/mL (≈ 4.51 µM) | (6.5) | 4 µg/mL (≈ 9.02 µM) | (2.9) | solubility ([2]; 0.01N HCl pH 2.0, 25° C., 24 hours equilibration): 21 µg/mL (≈ 47.4 µM); stability and solubility (24 h) in aqueous media ([2]; aqueous media, 24 h, versus free form hydrate): comparable to the free form hydrate; solubility compared to the solubility of the free form ([2]; biological fluids SGF, FaSSIF and FeSSIF): significantly better; solid form after DVS [3]: remains the same form; moisture absorption by DVS ([3]; at 90% RH, 25° C.): 0.3%; hygroscopicity [3]: non-hygroscopic; DP % (Degradation Product), Bulk (UPLC) [4, 8]: 1.8%; DP % (Degradation Product), Bulk (UPLC) ([4]; 1 week 50° C./75% r.h.): 1.7%; DP % (Degradation Product), Bulk (UPLC) [4, 9]: 1.7%; DP % (Degradation Product), Bulk (UPLC) ([4]; 1 week 80° C./75% r.h.): 1.7%; DP % (Degradation Product), Amber vial (HPLC) [4]: 1.7%; DP % (Degradation Product), Clear vial (HPLC) [4]: 1.6%; crystal form after grinding, compression and wet granulation [5]: did not alter the crystal form
2 | Cc1nc(C)c(C(=O)Nc2ccc(F)c(-c3nc4ncc(-c5ncccc5C)cn4n3)c2)o1 [Free Form, N-(4-fluoro-3-(6-(3-methylpyridin-2-yl)-[1,2,4]triazolo[1,5-a]pyrimidin-2-yl)phenyl)-2,4-dimethyloxazole-5-carboxamide] | no change | change | change | 2.10 | 232 µg/mL (≈ 523 µM) | 1.00 | 4 µg/mL (≈ 9.02 µM) | 6.31 | 6 µg/mL (≈ 13.5 µM) | 5.73 | 29 µg/mL (≈ 65.4 µM) | 1.99 | 2 µg/mL (≈ 4.51 µM) | 4.68 | 2 µg/mL (≈ 4.51 µM) | 8.58 | 1 µg/mL (≈ 2.26 µM) | 6.65 | 9 µg/mL (≈ 20.3 µM) | 8.18 | form change in bulk [1, 18]: form changes were noticed; form obtained upon exposure to 75% RH humidity ([1]; 75% RH at both temperatures (50° C. and 80° C.), one week): a dihydrate was obtained; form observed ([1]; under 50° C./75% RH): mixture of the free form hydrate and anhydrous modification; solubility at 24 h ([2]; simulated gastric fluid, thermodynamic from solid, 0.01N HCl pH 2.0, 25° C., 24 hours equilibration): 17 µg/mL (≈ 38.3 µM); form after degradation at 160° C. [6]: converts to an amorphous form; form after storage at 92% RH ([7]; listed as Compound I free form): changes into a dihydrate; form after storage at 92% RH ([7]; listed as free form hydrate): dihydrate; solid form after DVS ([3]; listed as Compound I free form): changes into a dihydrate; solid form after DVS ([3]; listed as free form hydrate): form change that is likely a dihydrate; moisture absorption by DVS ([3]; at 25° C., RH not stated): 8.9%; hygroscopicity ([3]; listed as free form hydrate): hygroscopic; chemical stability in bulk [4, 18]: chemically stable; stability upon exposure to light ([4]; 1200 kLuxh light for 12 hrs): stable; DP % (Degradation Product), Bulk (UPLC) [4, 8]: 0.6%; DP % (Degradation Product), Bulk (UPLC) ([4]; 1 week 50° C./75% r.h.): 0.6%; DP % (Degradation Product), Bulk (UPLC) [4, 9]: 0.6%; DP % (Degradation Product), Bulk (UPLC) ([4]; 1 week 80° C./75% r.h.): 0.6%; DP % (Degradation Product), Amber vial (HPLC) [4]: 0.8%; DP % (Degradation Product), Clear vial (HPLC) [4]: 0.6%; crystal form after grinding, compression and wet granulation ([5]; listed as free form hydrate): converted to a different hydrate or a hydrate mixture

— patent publication US11891401B2, “Solid forms of N-(4-fluoro-3-(6-(3-methylpyridin-2-yl)-[1,2,4]triazolo[1,5-a]pyrimidin-2-yl)phenyl)-2,4-dimethyloxazole-5-carboxamide” (NOVARTIS AG, priority 2018, dated 2024)
